Data set [1] deals with Pax6, Otx2, Sox2, Sox3, NCAM, Vent1. Description: RT-PCR of neural markers (animal caps or embryos). The class given is cell-based, Xenopus laevis. The text has this: RT-PCR Animal caps were dissected from embryos at stage 8.5 and cultured in 67% Leibovitz's L-15 medium, pH 7.5 in the presence or absence of varied concentration of alcohol until stage 22. Total RNA was extracted from cultured animal caps with Trizol reagent (Invitrogen). Primer sets and PCR conditions for NCAM and Pax6 have been described in our previous reports (Peng, Neurobiol. Dis., 2004; Peng, J. Mol. Biol., 2004). PCR products were subject to electrophoresis on TBE gel and visualized by ethidium bromide staining.
Animal cap explant assay. […] Total RNA was extracted from animal caps or whole embryos using TRIZOL reagent (Invitrogen). The total RNA was reverse transcribed using the Superscript system (Invitrogen), and the first strand cDNA of the target gene amplified by PCR.
The Xenopus animal cap is composed of pluripotent cells that can be induced to form neural, mesodermal, or epidermal tissue, and is a useful tissue to assess the activity of various factors on neural development. Animal caps were treated with varied concentrations of alcohol as indicated.

Data set [2] relates to Xenopus laevis embryos. The settings on record: for Alive / dead: 15 embryos; for Body length / Eye distance: mean ± SD. As for the experimental part:
Morphological measurements of microcephaly and growth retardation.
Vitamin C treatment. Embryos at stage 13 (initial neural plate stage) were collected and divided into groups, each containing 15-20 embryos and incubated in a plastic petri dish containing MMR medium as stated above. Vitamin C, having a concentration of 100 μM, was added either concomitantly, 2 hours before, or 2 hours after the initiation of a 12-hour alcohol exposure. The tadpoles were fixed and measurements were made as stated above.

Data set [3] concerns Xenopus laevis tadpole brain. Description: Histological analysis of brain injury (coronal brain sections of tadpoles). The text has this: Histological analysis of brain injury. Embryos were fixed in 2% paraformaldehyde, dehydrated, embedded in paraffin. The embryos were sectioned coronally through the head and stained with hematoxylin and eosin.
The EF-1α transcript was detected as an internal control for equal RNA load.

The test system of data set [4] is alcohol-induced ROS production. Description: ROS measurement (hydrogen peroxide level in embryos). It is filed as in vivo, Xenopus laevis. The settings on record: vitamin C pretreatment 2 hours before 0.6% ethanol. The protocol: (A) Embryos were pretreated with or without vitamin C two hours before alcohol treatment (0.6%, 12 h, from stage 13 to 22). The embryos were harvested at stage 22 and the hydrogen peroxide level measured by the colorimetric quantitation of hydrogen peroxide method (total hydroperoxides), according to the protocols provided by the manufacturer (BIOXYTECH H202-560 kit, OXIS International, Inc., USA); (B) The NF-κB mediated transcriptional activity was measured using NF-κB luciferase reporter plasmid (pLuc-NF-κB) containing IL-6 promoter region with four repeats of NF-κB binding sites.
ROS measurement. […] At the end of the experiment, embryos were harvested and total ROS content was determined by the calorimetric quantitation of hydrogen peroxide method (total hydroperoxides), following protocols provided by the manufacturer (BIOXYTECH H202-560 kit, OXIS International, Inc. USA).

The subject of data set [5] is rats. The settings on record: pregnant rats treated with folic acid concomitantly to ethanol administration; cited from earlier work.
For data set [6], the system named is embryonic hippocampal cultures. To be noted: against 400-2400 mg/dl of ethanol treatment; cited from earlier work.
[7] abbreviates: 100 μM VitC 2 hours after start of 12-hour 0.6% EtOH (Post-VitC).
Setting [8] is: 100 μM VitC 2 hours before 12-hour 0.6% EtOH (Pre-VitC).
The mark [9] stands for this setting: 100 μM VitC concomitantly with 12-hour 0.6% EtOH.

Read-outs that look alike come from different tables or passages of the source. Marks after values point to notes of the source that are not given here.

In the case of `OO` [H2O2, hydrogen peroxide], in data set [1] (animal caps treated with 100 M of H2O2 instead of alcohol), the “expression of Pax6, Otx2, Sox2, Sox3, and NCAM” value is listed as “reduced the expression”.
For the molecule `O=C1O[C@H]([C@@H](O)CO)C(O)=C1O` [VitC, ascorbic acid], the Alive in data set [2] (setting [7]), in data set [2] (setting [8]) and in data set [2] (setting [9]) was 14 in each case. The dead is on record as 1 in data set [2] (setting [7]); 1 in data set [2] (setting [8]); 1 in data set [2] (setting [9]); 1 in data set [2] (VitC alone, 100 μM, no ethanol). Moreover, the Body length in data set [2] (setting [7]) was 9.60 ± 013^b mm; in data set [2] (setting [8]), 11.88 ± 006^a mm; in data set [2] (setting [9]) it was 10.19 ± 014^a mm. Moreover, the values for the Eye distance in data set [2] (setting [7]), in data set [2] (setting [8]) and in data set [2] (setting [9]) were 1.82 ± 004^b mm, 2.13 ± 002^a mm and 1.88 ± 003^a,b mm, respectively. In addition, in data set [2] (pretreating embryos with 100 μM vitamin C), the “severity of alcohol-induced microencephaly and growth retardation” value is on record as “significantly reduced the severity”. Moreover, in data set [1] (ethanol treated embryos, vitamin C pretreatment), the “expression of NCAM and Pax6 (RT-PCR)” value is “restored significantly”. Also, the “forebrain areas, histology at stage 45” value in data set [3] (vitamin C 2 hours before addition of alcohol) is given as “significant restoration of the forebrain areas”. For the same molecule, in data set [3] (vitamin C concomitantly with alcohol), the “width of the canal in diencephalon areas” value was “could not narrow down the canal”. In data set [4], the “ethanol-induced hydrogen peroxide level” value was “suppressed”.
For `Nc1nc2ncc(CNc3ccc(C(=O)N[C@@H](CCC(=O)O)C(=O)O)cc3)nc2c(=O)[nH]1` [folic acid], the “amount of ethanol-mediated oxidative stress” value in data set [5] is reported as “mitigated”.
For the molecule `CC1=C(/C=C/C(C)=C/C=C/C(C)=C/C=C/C=C(C)/C=C/C=C(C)/C=C/C2=C(C)CCCC2(C)C)C(C)(C)CCC1` [β-carotene], the “protection of embryonic hippocampal cultures” value in data set [6] was “protected”.
For the molecule Vitamin E, the “protection of embryonic hippocampal cultures” value in data set [6] is reported as “protected”.

(Values after patent US20060037085A1, “Animal model for fetal alcohol syndrome and methods of treatment” (priority 2004, published 2006).)
